Experimental data: patent publication US20260199287A1, “LIPO-HYDROXAMIC ACID DERIVATIVE AND PHARMACEUTICAL USE THEREOF” (MediciBIO Co., Ltd, priority 2022, published 2026)
Like-named read-outs stand apart in the source and are kept apart here. Values belong to the compound of their own block, whether it stands above or below them.

Legend:
[1] = tested on: human corneal endothelial cells; assay: In vitro antioxidant activity, ROS-Glo H2O2 assay in corneal dystrophy-like environment; format: cell-based; details: compared to control group (corneal dystrophy-mimicking: UV 5 J/cm^2 + TGF-β1 10 ng/ml); sample 4 h before induction
Method: (§1) PriNeu I medium, which is a serum-free medium, was supplemented with 10% fetal bovine serum, human epidermal growth factor (EGF), human vascular endothelial growth factor (VEGF), human insulin, human transferrin, sodium selenite, hydrocortisone, heparin, R estradiol, L-glutamine, penicillin/streptomycin, and G418 (geneticin). Human corneal endothelial cells (purchased from Creative Biolabs (NY, USA)) were seeded onto culture dishes coated with FNC Coating Mix (Athena Environmental Science, MD, USA) and incubated at 37° C. in a humidified 5% CO2 atmosphere.
To establish an intracellular environment similar to that of cells affected by corneal dystrophy (hereinafter referred to as “corneal dystrophy-like environment”), cellular signaling pathways involving reactive oxygen species (ROS) and transforming growth factor-beta (TGF-β), both known to be associated with corneal dystrophy, were activated. Human corneal endothelial cells were first cultured in standard medium for 24 hours, after which the medium was replaced with serum-free PriNeu I medium. The cells were then irradiated at an intensity of 5 J/cm^2 using a UV irradiation (BLX-Link, Vilber, France). Subsequently, the cells were treated with recombinant human TGF-β1 protein at a concentration of 10 ng/ml (Bon Opus, NJ, USA).
To determine the effect of the above-prepared lipo-hydroxamic acid derivatives on oxidative stress activity in corneal endothelial cells, human corneal endothelial cells were cultured at 1.5×10^4 cells per well in a 96-well plate coated with FNC Coating Mix for 18 to 24 hours. Subsequently, the cells were treated with the test samples (Samples 1, 3, and 5). […] The oxidative stress activity was determined by measuring the level of hydrogen peroxide (hereinafter referred to as “H2O2”) in the cell culture medium using the ROS-Glo™ H2O2 Assay (Promega, WI, USA) according to the manufacturer's instructions. The luminescence intensity was measured using the GloMax® Discover microplate reader (Promega) at an excitation wavelength of 485 nm and an emission wavelength of 520-530 nm.

Sprague-Dawley rats = assay: Antioxidant activity in vivo, H2O2 level after benzalkonium-induced corneal oxidative stress; design: species or system rat; details: 0.1% and 0.3% eye drops, 10 μL, three times a day for 3 days; compared to control (0.02% benzalkonium)
Method: To determine the effect of the sample on oxidative stress, animal experiments were conducted using Sprague-Dawley rats (purchased from Bio Link). To induce oxidative stress in the cornea of an animal model, the anterior chamber of the right eye was punctured using a syringe equipped with a 30G needle, and then the needle was inserted into the corneal limbus to inject 0.02% benzalkonium (BAK), a known oxidative stress inducer. The ocular surface was subsequently rinsed with sterile saline. To determine whether oxidative stress was induced, the H2O2 level, an indicator of oxidative stress, was measured in the anterior aqueous humor and corneal tissue using the Amplex Red Hydrogen Peroxide/Peroxidase assay kit (Invitrogen, MA, USA) according to the manufacturer's instructions. Afterwards, the animal model received 10 μL drops (single dose) of the sample (Sample 1) at a dose of 0.1% or 0.3% for 24 hours, including pretreatment, three times a day for 3 days, and then the H2O2 level in the anterior aqueous humor was measured. Additionally, proteins were extracted from the harvested corneal tissue, and Western blot was performed in the same manner as in Example 5-1 to examine the expression of the Nrf2 protein. […]

[2] = tested on: nuclear factor erythroid-2-related factor 2 (Nrf2); assay: Western blot of Nrf2 protein expression; format: cell-based, human; details: compared to the control; corneal dystrophy-like environment
Method: To identify a mechanism of antioxidant activity of the lipo-hydroxamic acid derivative prepared above, Western blot was performed to detect protein expression of nuclear factor erythroid-2-related factor 2 (Nrf2; NCBI Gene ID: 4780) which is an antioxidant transcription factor. First, human corneal endothelial cells were cultured at 3×10^5 cells per well in a 6-well plate coated with FNC Coating Mix for 18 to 24 hours, and the samples were treated. Four hours after the sample treatment, the corneal dystrophy-like environment was induced in accordance with the method described in Example 3-2. Twenty-four hours after induction of the corneal dystrophy-like environment, the cells were washed with phosphate-buffered saline (PBS) and lysed using RIPA lysis buffer (GenDEPOT) containing protease inhibitor cocktail tablets (GenDEPOT, TX, USA). The cell lysates were centrifuged at 13,000 rpm at 4° C. for 10 minutes to obtain the supernatant. Protein concentration in the supernatant was determined using a BCA kit (Thermo Fisher Scientific, MA, USA). Equal amounts of protein were mixed with 5x SDS sample buffer and boiled for 5 minutes, followed by gel electrophoresis. The separated proteins were transferred to a nitrocellulose membrane (GenDEPOT), and nonspecific antibody binding was blocked by incubating the membrane in 5% skim milk at room temperature for 1 hour. […]

N-cadherin = assay: Real-time PCR, N-cadherin mRNA; format: cell-based, human; details: corneal dystrophy-like environment
Method: (§2) To identify the antioxidant mechanism of the lipo-hydroxamic acid derivative prepared above, real-time PCR was performed to detect the mRNA expression levels of the antioxidant enzymes downstream of Nrf2. First, human corneal endothelial cells were cultured at 3×10^5 cells per well in a 6-well plate coated with FNC Coating Mix for 18 to 24 hours, and the samples were treated. Four hours after the sample treatment, the corneal dystrophy-like environment was induced using the same method as described in Example 3-2. Twenty-four hours after inducing the corneal dystrophy-like environment, RNA was isolated from the cells using an RNA extraction kit (Bioneer, Daejeon), and cDNA was synthesized from […] of RNA using RT PreMix (Bioneer). Subsequently, real-time PCR was performed using GoTaq mater mix (Promega) containing SYBR green solution at 95° C. for 2 minutes, followed by 35 cycles at 95° C. for 15 seconds and at 60° C. for 1 minute.
(§3) To identify the effect of the lipo-hydroxamic acid derivative prepared above on the expression of fibrosis- and cellular degeneration-related factors in corneal endothelial cells, real-time PCR was performed to detect mRNA expression levels of the fibrosis marker N-cadherin, and the cellular degeneration markers collagen I and fibronectin. The real-time PCR was performed in the same manner as in Example 5-2 above.

[3] = Stability as an eye drop composition (HPLC peak area); format: physicochemical; details: for Peak area(%) Sample 1 / Peak area(%) Total amount of decomposed products: HPLC
Method: In order to identify the stability of the lipo-hydroxamic acid derivative prepared above as an eye drop composition, the ratio (peak area, % o) of the active ingredient and decomposed product of the sample (Sample 1) was determined via HPLC analysis.

ABCB6 = assay: Real-time PCR, ABCB6 mRNA; format: cell-based, human; details: corneal dystrophy-like environment
Method: as §2

HO-1 = assay: Real-time PCR, HO-1 mRNA; format: cell-based, human; details: corneal dystrophy-like environment
Method: as §2

NQO-1 = assay: Real-time PCR, NQO-1 mRNA; format: cell-based, human; details: corneal dystrophy-like environment
Method: as §2

[4] = format: in vitro ADME
fibronectin = assay: Real-time PCR, fibronectin mRNA; format: cell-based, human; details: corneal dystrophy-like environment
Method: as §2, §3

[5] = tested on: human corneal endothelial cells; assay: Anti-apoptotic effect, CellTiter-Glo 2.0 cell viability assay in corneal dystrophy-like environment; format: cell-based; details: compared to control group (corneal dystrophy-mimicking); 24 hours treatment
Method: as §1, with “atmosphere. […]” for “atmosphere.”
In order to identify the effect of the lipo-hydroxamic acid derivative prepared above on apoptosis caused by corneal dystrophy in corneal endothelial cells, human corneal endothelial cells were cultured in the same manner as in Example 3-1. […] Afterwards, the samples (Samples 1, 4, and 5) were pretreated for 24 hours, and cell viability was measured via the CellTiter-Glo 2.0 cell viability assay (Promega). The number of viable cells was determined based on intracellular ATP levels, and the luminescence intensity was measured using a GloMax Discover microplate reader (Promega).

Nrf2 = Nrf2 protein expression in corneal tissue in vivo (Western blot); design: species or system rat; details: 0.1% and 0.3% eye drops; compared to control (0.02% benzalkonium)
Method: (§4) To identify a mechanism of antioxidant activity of the lipo-hydroxamic acid derivative prepared above, Western blot was performed to detect protein expression of nuclear factor erythroid-2-related factor 2 (Nrf2; NCBI Gene ID: 4780) which is an antioxidant transcription factor. First, human corneal endothelial cells were cultured at 3×10^5 cells per well in a 6-well plate coated with FNC Coating Mix for 18 to 24 hours, and the samples were treated. Four hours after the sample treatment, the corneal dystrophy-like environment was induced in accordance with the method described in Example 3-2. […] Protein concentration in the supernatant was determined using a BCA kit (Thermo Fisher Scientific, MA, USA). […]
To determine the effect of the sample on oxidative stress, animal experiments were conducted using Sprague-Dawley rats (purchased from Bio Link). […] To determine whether oxidative stress was induced, the H2O2 level, an indicator of oxidative stress, was measured in the anterior aqueous humor and corneal tissue using the Amplex Red Hydrogen Peroxide/Peroxidase assay kit (Invitrogen, MA, USA) according to the manufacturer's instructions. Afterwards, the animal model received 10 μL drops (single dose) of the sample (Sample 1) at a dose of 0.1% or 0.3% for 24 hours, including pretreatment, three times a day for 3 days, and then the H2O2 level in the anterior aqueous humor was measured. […]

Smad2/3 = assay: Western blot of Smad2/3 phosphorylation; format: cell-based, human; details: compared to the control group (corneal dystrophy-mimicking)
peroxiredoxin 1 (Prdx1) = assay: Real-time PCR, Prdx1 mRNA; format: cell-based, human; details: corneal dystrophy-like environment
Method: as §2

collagen I = assay: Real-time PCR, collagen I mRNA; format: cell-based, human; details: corneal dystrophy-like environment
Method: as §2, §3

cleaved caspase-3 = assay: Western blot of cleaved caspase-3; format: cell-based, human; details: compared to the control group; environment induced 24 hours after sample treatment
Method: as §4
To identify the effect of the lipo-hydroxamic acid derivative prepared above on apoptosis in corneal endothelial cells, Western blot was performed to detect the protein expression of cleaved caspase-3 which is a major protease involved in apoptosis. […] The anti-cleaved caspase-3 antibody (Asp175; Cell Signaling Technology) was used as the primary antibody, and the cleaved caspase-3 expression was detected by a chemiluminescence image analysis system.

Smad3 = assay: SMAD3 (pS423/pS425) ELISA; format: cell-based, human; details: compared to the control group (corneal dystrophy-like environment)
Method: To identify the effect of the lipo-hydroxamic acid derivative prepared above on the expression of factors associated with fibrosis- and cellular degeneration-related factors in corneal endothelial cells, ELISA was performed to observe the activity of Smad3 protein. Analysis was carried out using SMAD3 (pS423/pS425) Human InstantOne ELISA kit (Thermo Fisher Scientific) according to the manufacturer's instructions. Human corneal endothelial cells were seeded in a 96-well plate at 2×10^4 cells per well, cultured for 24 hours, and then treated with the sample. Twenty-four hours after the sample treatment, the corneal dystrophy-like environment was induced in the same manner as in Example 3-2. Twenty-four hours after the induction, the cells were washed with PBS, lysed by adding 100 μL of lysis buffer mixture prepared by mixing the cell lysis reagent and buffer supplied in the kit. Subsequently, 50 μL of the cell lysate from each sample was added to the ELISA microplate wells. A 1:1 mixture of capture antibody and detection antibody, as provided in the kit, was prepared to form an antibody cocktail, and 50 μL of this mixture was added to each well. The plate was sealed and incubated at room temperature on a shaker at 300 rpm for 1 hour. […] The plate was then read using a microplate reader (Promega) at an absorbance of 450 nm.

SMILES: CN(OCCO)C(=O)CCCC[C@@H]1CCSS1 [Sample 3, (R)-5-[1,2]dithiolan-3-yl-pentanoic acid (2-hydroxy-ethoxy)-methyl-amide]
- oxidative stress (H2O2 level in cell culture medium) [1]: significantly decreased

SMILES: O=C(CCCCC1CCSS1)N(O)C(=O)CCCCC1CCSS1 (stereo not drawn) [Sample 5, 5-[1,2]dithiolan-3-yl-pentanoic acid (5-[1,2]dithiolan-3-yl-pentanoyl-hydroxy-amide)]
- oxidative stress (H2O2 level in cell culture medium) [1]: significantly decreased

- Peak area(%) Sample 1 ([3]; Day 1): 99.36%
- Peak area(%) Total amount of decomposed products ([3]; Day 1): 0.62%
- Peak area(%) Sample 1 ([3]; Day 2): 99.20%
- Peak area(%) Total amount of decomposed products ([3]; Day 2): 0.80%
- Peak area(%) Sample 1 ([3]; Day 3): 99.36%
- Peak area(%) Total amount of decomposed products ([3]; Day 3): 0.64%
- Peak area(%) Sample 1 ([3]; Early stage): 99.72%
- Peak area(%) Total amount of decomposed products ([3]; Early stage): 0.28%
- stability in a liquid phase ([3]; up to day 3): good stability
- Peak area (%) ([4]; 0.5 h): 97.37%
- Peak area (%) ([4]; 2 h): 92.65%
- Peak area (%) ([4]; 18 h): 17.42%
- Peak area (%) ([4]; 24 h): 6.00%
SMILES: O=C(CCCCC1CCSS1)NOCCO (stereo not drawn) [Sample 1, 5-[1,2]dithiolan-3-yl-pentanoic acid (2-hydroxy-ethoxy)-amide]
- decrease of H2O2 in the anterior aqueous humor (Sprague-Dawley rats): 40-70%
- oxidative stress (H2O2 level in cell culture medium) [1]: significantly decreased
- Nrf2 protein expression [2]: significantly increased
- mRNA expression of N-cadherin (N-cadherin): significantly decreased in a concentration-dependent manner
- mRNA expression of ABCB6 (ABCB6): significantly increased
- mRNA expression of HO-1 (HO-1): significantly increased
- mRNA expression of NQO-1 (NQO-1): significantly increased
- mRNA expression of fibronectin (fibronectin): significantly decreased in a concentration-dependent manner
- concentration from which a significant increase in cell viability was observed [5]: ≥ 30 µM
- Nrf2 expression in corneal tissue (Nrf2): significantly increased depending on the concentration of the sample
- phosphorylation of Smad2/3 protein (Smad2/3): significantly decreased
- mRNA expression of peroxiredoxin 1 (Prdx1) (peroxiredoxin 1 (Prdx1)): significantly increased
- mRNA expression of collagen I (collagen I): significantly decreased in a concentration-dependent manner
- protein expression of cleaved caspase-3 (cleaved caspase-3): significantly decreased in a concentration-dependent manner
- activity of the Smad3 protein (Smad3): significantly decreased
